ChEMBL document CHEMBL1201862, “PubChem BioAssay data set” (2004)
Several values for one entry are separate records, joined by “and”; a condition that tells them apart may be missing. Identical values can stand only once.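 Five compound concentrations were applied to cells in 96-well plates for 48 hours; endpoints were derived by simple linear interpolation of the resulting dose-response curve. GI50 marks 50% less growth.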 Activity calls are given as the source filed them. Cut-off read from the data, not from the text of the source: active = GI50 up to about 1.1 µM and inactive = higher.

Key:
Experiment in all cases: NCI anticancer screen, dose series, 48 h
ACHN = system: ACHN
A498 = system: A498
NCI-H522 = system: NCI-H522
SK-MEL-28 = system: SK-MEL-28
OVCAR-8 = system: OVCAR-8
HL-60 = system: HL-60
SK-OV-3 = system: SK-OV-3
M14 = system: M14
LOX IMVI = system: LOX IMVI
TK-10 = system: TK-10
IGROV-1 = system: IGROV-1
HOP-62 = system: HOP-62
MCF7 = system: MCF7
A549 = system: A549
MOLT-4 = system: MOLT-4
SK-MEL-2 = system: SK-MEL-2
COLO 205 = system: COLO 205
RPMI-8226 = system: RPMI-8226
MDA-MB-231 = system: MDA-MB-231

Row | Structure (SMILES) | GI50 (ACHN) | GI50 (A498) | GI50 (NCI-H522) | GI50 (SK-MEL-28) | GI50 (OVCAR-8) | GI50 (HL-60) | GI50 (SK-OV-3) | GI50 (M14) | GI50 (LOX IMVI) | GI50 (TK-10) | GI50 (IGROV-1) | GI50 (HOP-62) | GI50 (MCF7) | GI50 (A549) | GI50 (MOLT-4) | GI50 (SK-MEL-2) | GI50 (COLO 205) | GI50 (RPMI-8226) | GI50 (MDA-MB-231)
1 | O=[N+]([O-])c1ccccc1CSc1nc(O)c2nc[nH]c2n1 | > 100 µM (inactive) | > 100 µM (inactive) | > 100 µM (inactive) and 58.7 µM (inactive) | > 100 µM (inactive) | > 100 µM (inactive) | 78.2 µM (inactive) | 63.8 µM (inactive) | 61.9 µM (inactive) | > 100 µM (inactive) | > 100 µM (inactive) and 79.8 µM (inactive) | > 100 µM (inactive) | > 100 µM (inactive) | > 100 µM (inactive) and > 99.3 µM (inactive) | > 100 µM (inactive) | > 100 µM (inactive) | > 100 µM (inactive) | > 100 µM (inactive) | > 100 µM (inactive) and 89.3 µM (inactive) | –
2 | O=C1C=CC(=NNc2ccccc2)C=CC1=O | 8.05 µM (inactive) | – | 13.1 µM (inactive) | 14.4 µM (inactive) | 20.4 µM (inactive) | 14 µM (inactive) | 26 µM (inactive) | 12.9 µM (inactive) | 5.09 µM (inactive) | 22.3 µM (inactive) | 7.94 µM (inactive) | 10.8 µM (inactive) | 19.3 µM (inactive) | 10.7 µM (inactive) | 3.1 µM (inactive) | 15.1 µM (inactive) | 13.5 µM (inactive) | – | 14.9 µM (inactive)
3 | O=C1c2ccccc2-c2cc3ccccc3c(=O)n21 | > 100 µM (inactive) | – | 15.5 µM (inactive) | > 100 µM (inactive) | > 100 µM (inactive) | – | – | 97.3 µM (inactive) | > 100 µM (inactive) | > 100 µM (inactive) | > 100 µM (inactive) | – | 29 µM (inactive) | > 100 µM (inactive) | – | > 100 µM (inactive) | > 100 µM (inactive) | 71.1 µM (inactive) | –
4 | O=C1CCN(CCC(F)(F)C(F)(F)C(F)(F)C(F)(F)F)C(=S)N1 | > 100 µM (inactive) | – | > 100 µM (inactive) | > 100 µM (inactive) | > 100 µM (inactive) | > 100 µM (inactive) | – | > 100 µM (inactive) | > 100 µM (inactive) | > 100 µM (inactive) | > 100 µM (inactive) | > 100 µM (inactive) | – | > 100 µM (inactive) | > 100 µM (inactive) | > 100 µM (inactive) | > 100 µM (inactive) | > 100 µM (inactive) | –
5 | Cc1ccc2nc(-c3ccc(N)c(I)c3)sc2c1 | 20.8 µM (inactive) | 20.4 µM (inactive) | 18 µM (inactive) | > 100 µM (inactive) | 67.5 µM (inactive) | 12.9 µM (inactive) | 38.2 µM (inactive) | 37.1 µM (inactive) | – | 0.39 µM (active) | – | 28.8 µM (inactive) | – | 15.2 µM (inactive) | 10.4 µM (inactive) | 17.9 µM (inactive) | 17.1 µM (inactive) | – | 14.3 µM (inactive)
6 | Cc1cc2ccccc2n2c1nc1ccc(O)cc12 | 9.91 µM (inactive) | – | 9.04 µM (inactive) | > 10 µM (inactive) | 7.29 µM (inactive) | > 10 µM (inactive) | > 10 µM (inactive) | > 10 µM (inactive) | – | > 10 µM (inactive) | > 10 µM (inactive) | > 10 µM (inactive) | > 10 µM (inactive) | > 10 µM (inactive) | 5.69 µM (inactive) | > 10 µM (inactive) | > 10 µM (inactive) | > 10 µM (inactive) | > 10 µM (inactive)
7 | CC[C@H]1C[C@@H](O)[C@@H]2[C@H](O)[C@H](O)CN2C1 | > 100 µM (inactive) | – | > 100 µM (inactive) | > 100 µM (inactive) | > 100 µM (inactive) | > 100 µM (inactive) | > 100 µM (inactive) | > 100 µM (inactive) | > 100 µM (inactive) | > 100 µM (inactive) | > 100 µM (inactive) | – | > 100 µM (inactive) | > 100 µM (inactive) | > 100 µM (inactive) | > 100 µM (inactive) | – | > 100 µM (inactive) | –
8 | O=C(OCC1OC(c2nn[nH]n2)C(OC(=O)c2ccccc2)C1OC(=O)c1ccccc1)c1ccccc1 (configuration not stated) | > 100 µM (inactive) | > 100 µM (inactive) | – | – | > 100 µM (inactive) | > 100 µM (inactive) | > 100 µM (inactive) | – | > 100 µM (inactive) | > 100 µM (inactive) | – | > 100 µM (inactive) | 41.2 µM (inactive) | > 100 µM (inactive) | > 100 µM (inactive) | > 100 µM (inactive) | > 100 µM (inactive) | 18.6 µM (inactive) | –
9 | Clc1nc(Cl)c(Cl)c(-c2ccccc2)n1 | 17.4 µM (inactive) | – | 1.67 µM (inactive) | 16 µM (inactive) | 10.4 µM (inactive) | > 100 µM (inactive) | 13.1 µM (inactive) | 1.77 µM (inactive) | 1.86 µM (inactive) | 18.8 µM (inactive) | 15.4 µM (inactive) | 4.03 µM (inactive) | 7.05 µM (inactive) | 13.8 µM (inactive) | 1.58 µM (inactive) | 15.4 µM (inactive) | – | 5.24 µM (inactive) | –
10 | Nc1ncc2c(n1)-c1ccccc1OC2N1CCOCC1 (configuration not stated) | > 100 µM (inactive) | – | 45.2 µM (inactive) | > 100 µM (inactive) | > 100 µM (inactive) | 44.5 µM (inactive) | > 100 µM (inactive) | > 100 µM (inactive) | > 100 µM (inactive) | > 100 µM (inactive) | > 100 µM (inactive) | > 100 µM (inactive) | > 100 µM (inactive) | > 100 µM (inactive) | > 100 µM (inactive) | > 100 µM (inactive) | > 100 µM (inactive) | > 100 µM (inactive) | > 100 µM (inactive)
11 | N#C/C(=C\c1cc(Cl)cc(Cl)c1)c1ccccn1 | 64.1 µM (inactive) | 0.757 µM (active) | 9.44 µM (inactive) | 8.63 µM (inactive) | 18 µM (inactive) | 6.27 µM (inactive) | 4.52 µM (inactive) | 35.5 µM (inactive) | – | 58.5 µM (inactive) | 12.4 µM (inactive) | 20 µM (inactive) | 5.61 µM (inactive) | 18.9 µM (inactive) | 5.14 µM (inactive) | 92 µM (inactive) | 31.8 µM (inactive) | > 100 µM (inactive) | –
12 | O=[N+]([O-])c1cc(-[n+]2cc([O-])on2)ccc1F | 17 µM (inactive) | – | 9.02 µM (inactive) | 15.4 µM (inactive) | 16.4 µM (inactive) | 22.6 µM (inactive) | 20.4 µM (inactive) | 16.1 µM (inactive) | 14.9 µM (inactive) | 18.4 µM (inactive) | 14.7 µM (inactive) | 15.8 µM (inactive) | 12.8 µM (inactive) | 17 µM (inactive) | – | 15.6 µM (inactive) | 17.7 µM (inactive) | 8.97 µM (inactive) | 18.7 µM (inactive)
